In US20250289786A1, “CHLORINATED MONOCARBONYL CURCUMIN COMPOUNDS, PREPARATION METHOD, AND APPLICATION” (Southwest Medical University, priority 2024, published 2025):

What was measured:
[1] = Solubility detection of CAK01-CAK07; type: physicochemical
From the text: The chlorinated monocarbonyl curcumin compounds CAK01-CAK07 prepared under the conditions of Example 1 were taken for nuclear magnetic resonance, mass spectrometry, solubility, and melting point detection.

PC12 cells [2] = experiment: MTT toxicity (safety evaluation) on PC12 nerve cells; type: cell-based
Method: The toxicity of each drug to PC12 cells was determined by MTT assay. The principle of the MTT colorimetric method: there is succinate dehydrogenase in the mitochondria of living cells, which can make exogenous MTT become blue-purple crystal formazan insoluble in water, this phenomenon cannot be observed in dead cells. The blue-purple crystal formazan can be dissolved by DMSO, and the absorbance value is measured by a microplate reader at a wavelength of 490 nm, which in turn reflects the number of living cells. […] The operation method is as follows:
The cells were resuscitated with DMEM high glucose medium containing 10% fetal bovine serum and cultured in a 5% CO2 cell incubator at 37° C., when the cells grew to the logarithmic growth phase, they were inoculated into a 96-well plate and cultured for 24 hours, each well was added with 100 μL of each compound solution at the corresponding gradient concentration (60, 30, 15, 7.5, 3.75 μM), after incubation in the incubator for 24 h or 48 h, 20 μL of MTT was added to continue incubation for 4 h, the supernatant was discarded and 150 μL of DMSO was added to dissolve the blue-purple crystals, after shaking for 10 min, the cell viability was detected by a microplate reader, and classified according to the cytotoxicity standard. The relevant calculation formula is as follows: […]

PC12 cells [3] = experiment: Inhibition of H2O2-induced oxidative damage in PC12 cells; type: cell-based, rat
Method: After 24 hours of incubation in the incubator, the relative proliferation rates of the cells were calculated according to the method under Section 2.1.

PC12 cells [4] = experiment: Inhibition of corticosterone (CORT)-induced PC12 cell damage; type: cell-based, rat; conditions: 24 h
BV2 cells [5] = experiment: NO release in LPS-induced BV2 cell stress; type: cell-based; conditions: 1 μg/mL LPS; for NO release versus model group: 24 h, in words
From the text: (§1) When the body is in a long-term stress and stress state, a large number of oxidizing substances and inflammatory factors accumulate in the body, causing depression and inducing depression-like symptoms. LPS is a pro-inflammatory substance, which can induce the increase of inflammatory factors, the accumulation of reactive oxygen species ROS and the release of NO in BV2 cells. The anti-inflammatory and antioxidant effects of drugs can be evaluated by establishing an LPS stress model.
NO detection: When BV2 cells grew to the logarithmic growth phase, they were inoculated in a 6-well plate at 1×10^6 cells/well and cultured for 24 h. Then the original medium was replaced with CAK06 fresh DMEM high glucose medium containing high (10 μM), medium (5 μM), and low (1 μM) concentrations, and three duplicate wells were set up in each group. After the cells were treated with compound CAK06 for 12 h, the supernatant of the culture medium was centrifuged and stained according to the instructions of the NO detection kit, and the absorbance was detected at a wavelength of 540 nm.

BV2 cells [6] = experiment: ROS detection (DCFH-DA) in LPS-induced BV2 cells; type: cell-based; conditions: 10, 5 and 1 μM with LPS, in words
From the text: as §1
ROS detection: The fluorescent dye probe DCFH-DA can freely pass through the BV2 cell membrane, and the dye entering the cell is enzymatically hydrolyzed to DCFH, at this time, it can no longer pass through the cell membrane. The intracellular ROS can oxidize DCFH to DCF with fluorescence, which can reflect the ROS content by detecting the fluorescence intensity of DCF. The specific operation is as follows: when BV2 cells grew to the logarithmic growth phase, they were inoculated in a 6-well plate at 1×10^6 cells/well and cultured for 24 h. […] After the cells were co-cultured with compound CAK06 for 12 h, the cells were stained according to the instructions of the ROS detection kit, and photographed and analyzed by an inverted fluorescence microscope.

[7] = system: CUMS depression model mice; experiment: Forced swimming test in CUMS depression model mice; type: in vivo, C57BL/6J mice; conditions: for forced swimming test, depressive symptoms / immobility time: 14th day, in words; for immobility time in the forced swimming test: 28 days
From the text: (§2) After one week of adaptive feeding, the newly purchased mice were divided into a blank group and CUMS model group. The mice in the blank group were not subjected to behavioral intervention and were fed normally. Mice in the model group were given 1-2 unpredictable behavioral stimuli every day. […] When the same stimulation is continuous, the stimulation method is changed to ensure that the same stimulation is not continuous, and the model construction period is 42 days.

[8] = system: CUMS depression model mice; experiment: Sucrose preference test in CUMS depression model mice; type: in vivo, C57BL/6J mice
From the text: as §2

[9] = system: CUMS depression model mice; experiment: Open field test in CUMS depression model mice; type: in vivo, C57BL/6J mice; conditions: 28 days, model 327.22±161.39 cm
From the text: as §2

[10] = system: Nrf2, HO-1, BDNF, and TrkB in the hippocampus; experiment: Western blot of hippocampal proteins in CUMS depression model mice; type: in vivo; conditions: low dose, in words
[11] = system: liver, heart, spleen, lung, and kidney tissues; experiment: HE staining safety evaluation of mouse tissues; type: in vivo; conditions: kidney of mice, in words

COc1cc(/C=C2\CNC/C(=C\c3cc(Cl)c(O)c(OC)c3)C2=O)cc(Cl)c1O [CAK06, 3,5-bis ((E)-3-chloro-4-hydroxy-5-methoxybenzylidene) piperidin-4-one]
solubility [1]: 171.77 mg/100 g | cytotoxicity to PC12 cells (PC12 cells [2]; 3.75-60 μM, 24 h and 48 h, in words): no significant cytotoxicity | Rank (cytotoxicity standard) 24 h (PC12 cells [2]; PC12, 3.75 μM): 0 | Relative growth rate (%) 24 h (PC12 cells [2]; PC12, 3.75 μM): 98.50 ± 3.77% | Rank (cytotoxicity standard) 48 h (PC12 cells [2]; PC12, 3.75 μM): 0 | Relative growth rate (%) 48 h (PC12 cells [2]; PC12, 3.75 μM): 100.05 ± 0.75% | Rank (cytotoxicity standard) 24 h (PC12 cells [2]; PC12, 7.5 μM): 0 | Relative growth rate (%) 24 h (PC12 cells [2]; PC12, 7.5 μM): 100.42 ± 2.85% | Rank (cytotoxicity standard) 48 h (PC12 cells [2]; PC12, 7.5 μM): 1 | Relative growth rate (%) 48 h (PC12 cells [2]; PC12, 7.5 μM): 92.97 ± 2.54% | Rank (cytotoxicity standard) 24 h (PC12 cells [2]; PC12, 15 μM): 1 | Relative growth rate (%) 24 h (PC12 cells [2]; PC12, 15 μM): 98.55 ± 4.12% | Rank (cytotoxicity standard) 48 h (PC12 cells [2]; PC12, 15 μM): 1 | Relative growth rate (%) 48 h (PC12 cells [2]; PC12, 15 μM): 88.82 ± 0.28% | Rank (cytotoxicity standard) 24 h (PC12 cells [2]; PC12, 30 μM): 1 | Relative growth rate (%) 24 h (PC12 cells [2]; PC12, 30 μM): 94.56 ± 2.82% | Rank (cytotoxicity standard) 48 h (PC12 cells [2]; PC12, 30 μM): 1 | Relative growth rate (%) 48 h (PC12 cells [2]; PC12, 30 μM): 93.60 ± 4.14% | Rank (cytotoxicity standard) 24 h (PC12 cells [2]; PC12, 60 μM): 0 | Relative growth rate (%) 24 h (PC12 cells [2]; PC12, 60 μM): 114.78 ± 1.81% | Rank (cytotoxicity standard) 48 h (PC12 cells [2]; PC12, 60 μM): 0 | Relative growth rate (%) 48 h (PC12 cells [2]; PC12, 60 μM): 109.26 ± 4.07% | cell proliferation rate (PC12 cells [3]; 60 μM drug with 585.8 μM H2O2, 24 h): 73.91±0.69% | effect on survival of H2O2-damaged PC12 cells (PC12 cells [3]; 3.75-60 μM drug, 24 h, in words): time-dependent and concentration-dependent cell protection | relative cell proliferation rate (PC12 cells [4]; 60 μM drug with 514.6 μM CORT): 66.95±0.97% | effect on viability of CORT-damaged PC12 cells (PC12 cells [4]; 3.75-60 μM drug with 514.6 μM CORT, in words): time-dependent and concentration-dependent cell protection | absorbance (NO release) (BV2 cells [5]; 1 μM (low), 12 h, 540 nm, model 0.153, blank 0.080): 0.145 | NO release versus model group (BV2 cells [5]; 1 μM (low)): no significant difference | NO release versus model group (BV2 cells [5]; 5 μM (medium)): significantly improved | NO release versus model group (BV2 cells [5]; 10 μM (high)): significantly improved | ROS fluorescence intensity (BV2 cells [6]): decreased in a concentration-dependent manner | forced swimming test, depressive symptoms / immobility time ([7]; 10 mg/kg oral once a day): significant reduction in immobility time | immobility time in the forced swimming test ([7]; 10 mg/kg oral once a day): 114.86 ± 84.07 s | forced swimming test, depressive symptoms / immobility time ([7]; 20 mg/kg oral once a day): stronger antidepressant effect | immobility time in the forced swimming test ([7]; 20 mg/kg oral once a day): 54.44 ± 53.38 s | sucrose preference rate ([8]; 10 mg/kg oral once a day, 14th day, in words): failed to significantly increase the sucrose preference rate | sucrose preference rate ([8]; 10 mg/kg oral once a day, 28 days, model 61.36±2.18%): 70.62±2.33% | sucrose preference rate ([8]; 20 mg/kg oral once a day, 14th day, in words): significant increase | sucrose preference rate ([8]; 20 mg/kg oral once a day, 28 days, model 61.36±2.18%): 77.42±2.77% | overall activity distance in the open field test ([9]; 10 mg/kg oral once a day): 868.90±280.97 cm | overall activity distance in the open field test ([9]; 20 mg/kg oral once a day): 1336.66±264.87 cm | expression of antioxidant-related proteins Nrf2 and HO-1 [10]: better expression than the Flu group | HE staining pathology of tissues [11]: basically normal
